Assay results from ChEMBL document CHEMBL4507317, “Data for DCP probe BAY-899” (2021).

Assays:
[1] = tested on: Tyrosine-protein kinase ABL1 (Homo sapiens), P00519 [E255K]; conditions: Compound concentration 1000.0 nM
[2] = tested on: Tyrosine-protein kinase ABL1 (Homo sapiens), P00519 [H396P]; conditions: Compound concentration 1000.0 nM
[3] = target: Tyrosine-protein kinase receptor UFO (Homo sapiens) (UniProt P30530); conditions: Compound concentration 1000.0 nM
[4] = target: Serine/threonine-protein kinase B-raf (Homo sapiens) (UniProt P15056); conditions: Compound concentration 1000.0 nM
[5] = target: Cyclin-dependent kinase 11A (Homo sapiens) (UniProt Q9UQ88); conditions: Compound concentration 1000.0 nM
[6] = target: Mitogen-activated protein kinase kinase kinase 12 (Homo sapiens) (UniProt Q12852); conditions: Compound concentration 1000.0 nM
[7] = target: Ephrin type-A receptor 3 (Homo sapiens) (UniProt P29320); conditions: Compound concentration 1000.0 nM
[8] = target: Ephrin type-B receptor 1 (Homo sapiens) (UniProt P54762); conditions: Compound concentration 1000.0 nM
[9] = target: Mitogen-activated protein kinase 3 (Homo sapiens) (UniProt P27361); conditions: Compound concentration 1000.0 nM
[10] = target: Vascular endothelial growth factor receptor 1 (Homo sapiens) (UniProt P17948); conditions: Compound concentration 1000.0 nM
[11] = tested on: Receptor-type tyrosine-protein kinase FLT3 (Homo sapiens), P36888 [UNDEFINED MUTATION]; conditions: Compound concentration 1000.0 nM
[12] = target: Mitogen-activated protein kinase kinase kinase kinase 1 (Homo sapiens) (UniProt Q92918); conditions: Compound concentration 1000.0 nM
[13] = tested on: Mast/stem cell growth factor receptor Kit (Homo sapiens), P10721 [D816H]; conditions: Compound concentration 1000.0 nM
[14] = tested on: Mast/stem cell growth factor receptor Kit (Homo sapiens), P10721 [D816V]; conditions: Compound concentration 1000.0 nM
[15] = tested on: Mast/stem cell growth factor receptor Kit (Homo sapiens), P10721 [V559D,T670I]; conditions: Compound concentration 1000.0 nM
[16] = target: Tyrosine-protein kinase Lyn (Homo sapiens) (UniProt P07948); conditions: Compound concentration 1000.0 nM
[17] = target: Dual specificity mitogen-activated protein kinase kinase 2 (Homo sapiens) (UniProt P36507); conditions: Compound concentration 1000.0 nM
[18] = target: Maternal embryonic leucine zipper kinase (Homo sapiens) (UniProt Q14680); conditions: Compound concentration 1000.0 nM
[19] = target: Tyrosine-protein kinase Mer (Homo sapiens) (UniProt Q12866); conditions: Compound concentration 1000.0 nM
[20] = target: Serine/threonine-protein kinase 26 (Homo sapiens) (UniProt Q9P289); conditions: Compound concentration 1000.0 nM
[21] = target: Myosin-IIIb (Homo sapiens) (UniProt Q8WXR4); conditions: Compound concentration 1000.0 nM
Sequence of Myosin-IIIb (Homo sapiens) (Q8WXR4 whole entry): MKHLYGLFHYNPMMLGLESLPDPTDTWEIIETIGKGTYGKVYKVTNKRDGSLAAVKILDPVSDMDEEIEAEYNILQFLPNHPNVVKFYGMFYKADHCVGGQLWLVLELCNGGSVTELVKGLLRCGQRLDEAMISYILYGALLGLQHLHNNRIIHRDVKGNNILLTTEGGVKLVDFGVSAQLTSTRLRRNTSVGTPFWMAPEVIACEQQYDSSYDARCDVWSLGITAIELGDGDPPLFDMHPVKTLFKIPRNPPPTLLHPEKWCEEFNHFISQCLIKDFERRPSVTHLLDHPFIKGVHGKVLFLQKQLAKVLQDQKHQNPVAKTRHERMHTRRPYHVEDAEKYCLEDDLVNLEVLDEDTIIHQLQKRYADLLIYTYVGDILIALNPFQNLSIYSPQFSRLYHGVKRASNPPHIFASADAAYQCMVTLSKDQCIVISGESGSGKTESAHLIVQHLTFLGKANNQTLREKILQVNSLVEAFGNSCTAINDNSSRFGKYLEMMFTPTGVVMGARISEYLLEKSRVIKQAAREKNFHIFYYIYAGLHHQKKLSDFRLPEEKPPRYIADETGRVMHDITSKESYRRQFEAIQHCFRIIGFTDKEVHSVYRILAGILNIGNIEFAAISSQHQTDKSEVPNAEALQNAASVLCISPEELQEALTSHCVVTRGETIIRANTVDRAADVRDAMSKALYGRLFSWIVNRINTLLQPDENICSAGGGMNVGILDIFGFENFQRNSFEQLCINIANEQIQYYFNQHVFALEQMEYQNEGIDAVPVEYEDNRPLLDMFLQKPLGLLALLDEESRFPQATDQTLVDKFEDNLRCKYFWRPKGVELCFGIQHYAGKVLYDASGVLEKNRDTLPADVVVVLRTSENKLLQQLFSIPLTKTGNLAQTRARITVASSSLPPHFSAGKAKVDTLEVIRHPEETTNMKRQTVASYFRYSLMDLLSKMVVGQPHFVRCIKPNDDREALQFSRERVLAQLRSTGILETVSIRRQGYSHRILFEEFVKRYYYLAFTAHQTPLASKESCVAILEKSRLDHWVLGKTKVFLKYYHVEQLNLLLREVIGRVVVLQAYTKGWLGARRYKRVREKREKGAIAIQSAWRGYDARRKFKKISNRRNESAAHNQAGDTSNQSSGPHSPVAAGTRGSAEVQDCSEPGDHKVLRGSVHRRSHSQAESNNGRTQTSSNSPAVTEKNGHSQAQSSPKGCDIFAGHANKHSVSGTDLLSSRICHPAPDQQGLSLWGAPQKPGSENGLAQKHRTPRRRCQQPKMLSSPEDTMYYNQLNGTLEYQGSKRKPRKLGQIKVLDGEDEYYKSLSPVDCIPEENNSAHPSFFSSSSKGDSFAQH

[22] = target: Serine/threonine-protein kinase Nek9 (Homo sapiens) (UniProt Q8TD19); conditions: Compound concentration 1000.0 nM
[23] = target: Mitogen-activated protein kinase 14 (Homo sapiens) (UniProt Q16539); conditions: Compound concentration 1000.0 nM
[24] = target: Cyclin-dependent kinase 2 homolog (Plasmodium falciparum (isolate 3D7)) (UniProt P61075); conditions: Compound concentration 1000.0 nM
[25] = tested on: Phosphatidylinositol 4,5-bisphosphate 3-kinase catalytic subunit alpha isoform (Homo sapiens), P42336 [E542K]; conditions: Compound concentration 1000.0 nM
[26] = target: Phosphatidylinositol 4,5-bisphosphate 3-kinase catalytic subunit beta isoform (Homo sapiens) (UniProt P42338); conditions: Compound concentration 1000.0 nM
[27] = target: Serine/threonine-protein kinase N2 (Homo sapiens) (UniProt Q16513); conditions: Compound concentration 1000.0 nM
[28] = target: Serine/threonine-protein kinase PLK2 (Homo sapiens) (UniProt Q9NYY3); conditions: Compound concentration 1000.0 nM
[29] = target: Protein kinase C delta type (Homo sapiens) (UniProt Q05655); conditions: Compound concentration 1000.0 nM
[30] = target: Protein kinase C epsilon type (Homo sapiens) (UniProt Q02156); conditions: Compound concentration 1000.0 nM
[31] = target: cGMP-dependent protein kinase 2 (Homo sapiens) (UniProt Q13237); conditions: Compound concentration 1000.0 nM
Sequence of cGMP-dependent protein kinase 2 (Homo sapiens) (Q13237 whole entry): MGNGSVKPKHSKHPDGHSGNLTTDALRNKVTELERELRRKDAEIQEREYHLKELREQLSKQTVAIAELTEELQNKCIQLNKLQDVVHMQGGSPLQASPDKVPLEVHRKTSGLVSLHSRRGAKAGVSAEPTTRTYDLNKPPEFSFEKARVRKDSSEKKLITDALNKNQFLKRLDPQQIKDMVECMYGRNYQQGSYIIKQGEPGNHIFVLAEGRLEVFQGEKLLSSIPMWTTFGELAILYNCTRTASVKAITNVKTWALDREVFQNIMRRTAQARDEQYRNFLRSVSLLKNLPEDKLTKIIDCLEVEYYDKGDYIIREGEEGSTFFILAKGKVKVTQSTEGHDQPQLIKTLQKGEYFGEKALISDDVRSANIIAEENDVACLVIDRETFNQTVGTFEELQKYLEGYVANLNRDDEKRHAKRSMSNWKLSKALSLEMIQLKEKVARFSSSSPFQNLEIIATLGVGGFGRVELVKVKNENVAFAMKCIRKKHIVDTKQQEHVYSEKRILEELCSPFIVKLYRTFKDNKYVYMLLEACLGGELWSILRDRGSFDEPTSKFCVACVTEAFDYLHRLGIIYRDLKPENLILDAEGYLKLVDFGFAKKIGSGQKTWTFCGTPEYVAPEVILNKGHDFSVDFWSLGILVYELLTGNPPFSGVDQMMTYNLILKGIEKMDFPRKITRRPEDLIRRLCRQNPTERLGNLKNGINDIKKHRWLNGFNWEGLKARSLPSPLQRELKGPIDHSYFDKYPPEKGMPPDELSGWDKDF

[32] = target: Serine/threonine-protein kinase SIK3 (Homo sapiens) (UniProt Q9Y2K2); conditions: Compound concentration 1000.0 nM
[33] = target: Receptor-interacting serine/threonine-protein kinase 1 (Homo sapiens) (UniProt Q13546); conditions: Compound concentration 1000.0 nM
Sequence of Receptor-interacting serine/threonine-protein kinase 1 (Homo sapiens) (Q13546 whole entry): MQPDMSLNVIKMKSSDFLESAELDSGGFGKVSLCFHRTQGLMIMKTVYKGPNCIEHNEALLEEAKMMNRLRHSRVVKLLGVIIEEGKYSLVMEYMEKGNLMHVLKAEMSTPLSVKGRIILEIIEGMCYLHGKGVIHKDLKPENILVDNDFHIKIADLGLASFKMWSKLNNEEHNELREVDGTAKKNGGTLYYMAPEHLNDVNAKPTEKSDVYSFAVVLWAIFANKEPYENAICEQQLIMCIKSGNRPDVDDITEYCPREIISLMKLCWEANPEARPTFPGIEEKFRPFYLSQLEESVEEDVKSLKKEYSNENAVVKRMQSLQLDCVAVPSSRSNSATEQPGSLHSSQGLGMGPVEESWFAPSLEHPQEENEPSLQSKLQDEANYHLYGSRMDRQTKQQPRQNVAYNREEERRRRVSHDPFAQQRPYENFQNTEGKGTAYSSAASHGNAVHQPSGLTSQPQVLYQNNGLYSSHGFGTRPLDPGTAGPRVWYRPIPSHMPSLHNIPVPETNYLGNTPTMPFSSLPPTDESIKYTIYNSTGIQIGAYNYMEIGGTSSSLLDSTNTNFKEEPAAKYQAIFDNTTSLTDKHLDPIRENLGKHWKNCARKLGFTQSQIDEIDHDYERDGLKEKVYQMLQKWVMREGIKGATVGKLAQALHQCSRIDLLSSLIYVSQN

[34] = target: Serine/threonine-protein kinase 16 (Homo sapiens) (UniProt O75716); conditions: Compound concentration 1000.0 nM
[35] = target: TRAF2 and NCK-interacting protein kinase (Homo sapiens) (UniProt Q9UKE5); conditions: Compound concentration 1000.0 nM
Sequence of TRAF2 and NCK-interacting protein kinase (Homo sapiens) (Q9UKE5 whole entry, looked up): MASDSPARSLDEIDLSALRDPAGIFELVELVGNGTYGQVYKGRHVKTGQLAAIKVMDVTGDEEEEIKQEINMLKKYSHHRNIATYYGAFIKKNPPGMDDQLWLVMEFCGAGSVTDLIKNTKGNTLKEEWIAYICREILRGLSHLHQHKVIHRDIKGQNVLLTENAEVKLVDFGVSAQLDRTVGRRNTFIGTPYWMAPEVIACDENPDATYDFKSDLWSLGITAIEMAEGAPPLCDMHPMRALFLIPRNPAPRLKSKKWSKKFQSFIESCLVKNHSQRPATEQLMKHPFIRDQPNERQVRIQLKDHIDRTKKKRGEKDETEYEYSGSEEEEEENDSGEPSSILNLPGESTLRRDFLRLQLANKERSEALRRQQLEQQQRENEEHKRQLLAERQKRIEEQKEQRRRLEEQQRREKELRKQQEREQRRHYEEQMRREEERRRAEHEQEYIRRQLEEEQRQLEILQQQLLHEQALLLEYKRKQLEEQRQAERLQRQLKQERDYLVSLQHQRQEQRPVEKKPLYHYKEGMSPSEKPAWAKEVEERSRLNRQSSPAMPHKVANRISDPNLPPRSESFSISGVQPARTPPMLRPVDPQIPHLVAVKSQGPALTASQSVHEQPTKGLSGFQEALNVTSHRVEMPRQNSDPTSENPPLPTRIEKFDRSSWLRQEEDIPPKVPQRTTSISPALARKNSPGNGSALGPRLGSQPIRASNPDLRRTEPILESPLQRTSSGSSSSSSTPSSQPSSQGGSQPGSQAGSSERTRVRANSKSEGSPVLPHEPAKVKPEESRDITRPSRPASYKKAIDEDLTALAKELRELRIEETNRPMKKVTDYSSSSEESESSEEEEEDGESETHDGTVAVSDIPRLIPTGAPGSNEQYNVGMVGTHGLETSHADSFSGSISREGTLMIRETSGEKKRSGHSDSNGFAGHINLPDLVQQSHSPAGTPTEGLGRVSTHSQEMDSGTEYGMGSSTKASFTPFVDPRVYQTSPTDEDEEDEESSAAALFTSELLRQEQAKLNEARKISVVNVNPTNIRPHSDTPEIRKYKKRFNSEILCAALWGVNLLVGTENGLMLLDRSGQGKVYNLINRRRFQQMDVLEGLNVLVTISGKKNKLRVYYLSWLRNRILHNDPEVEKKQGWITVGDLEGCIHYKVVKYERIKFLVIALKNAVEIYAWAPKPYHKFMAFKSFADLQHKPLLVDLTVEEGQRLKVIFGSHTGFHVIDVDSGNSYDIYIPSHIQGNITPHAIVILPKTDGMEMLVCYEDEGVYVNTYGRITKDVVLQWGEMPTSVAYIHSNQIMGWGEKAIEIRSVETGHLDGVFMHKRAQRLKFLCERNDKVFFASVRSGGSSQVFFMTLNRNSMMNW

[36] = target: BDNF/NT-3 growth factors receptor (Homo sapiens) (UniProt Q16620); conditions: Compound concentration 1000.0 nM
[37] = target: Serine/threonine-protein kinase ULK1 (Homo sapiens) (UniProt O75385); conditions: Compound concentration 1000.0 nM
[38] = target: Serine/threonine-protein kinase ULK3 (Homo sapiens) (UniProt Q6PHR2); conditions: Compound concentration 1000.0 nM
Sequence of Serine/threonine-protein kinase ULK3 (Homo sapiens) (Q6PHR2 whole entry): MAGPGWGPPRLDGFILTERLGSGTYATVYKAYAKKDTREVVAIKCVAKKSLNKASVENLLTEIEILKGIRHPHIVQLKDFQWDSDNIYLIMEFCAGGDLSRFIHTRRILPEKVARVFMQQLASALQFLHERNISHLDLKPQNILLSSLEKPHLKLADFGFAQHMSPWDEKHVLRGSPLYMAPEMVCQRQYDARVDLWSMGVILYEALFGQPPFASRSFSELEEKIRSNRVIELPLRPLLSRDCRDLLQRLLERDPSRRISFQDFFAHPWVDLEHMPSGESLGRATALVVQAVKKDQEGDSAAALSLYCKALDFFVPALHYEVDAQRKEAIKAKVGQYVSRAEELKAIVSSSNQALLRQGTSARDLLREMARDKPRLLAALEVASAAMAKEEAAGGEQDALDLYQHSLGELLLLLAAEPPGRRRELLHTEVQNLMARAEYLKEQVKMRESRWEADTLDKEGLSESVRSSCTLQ

[39] = target: Wee1-like protein kinase (Homo sapiens) (UniProt P30291); conditions: Compound concentration 1000.0 nM
[40] = target: D(1B) dopamine receptor (Homo sapiens) (UniProt P21918); conditions: Compound concentration 10.0 uM
Sequence of D(1B) dopamine receptor (Homo sapiens) (P21918 whole entry): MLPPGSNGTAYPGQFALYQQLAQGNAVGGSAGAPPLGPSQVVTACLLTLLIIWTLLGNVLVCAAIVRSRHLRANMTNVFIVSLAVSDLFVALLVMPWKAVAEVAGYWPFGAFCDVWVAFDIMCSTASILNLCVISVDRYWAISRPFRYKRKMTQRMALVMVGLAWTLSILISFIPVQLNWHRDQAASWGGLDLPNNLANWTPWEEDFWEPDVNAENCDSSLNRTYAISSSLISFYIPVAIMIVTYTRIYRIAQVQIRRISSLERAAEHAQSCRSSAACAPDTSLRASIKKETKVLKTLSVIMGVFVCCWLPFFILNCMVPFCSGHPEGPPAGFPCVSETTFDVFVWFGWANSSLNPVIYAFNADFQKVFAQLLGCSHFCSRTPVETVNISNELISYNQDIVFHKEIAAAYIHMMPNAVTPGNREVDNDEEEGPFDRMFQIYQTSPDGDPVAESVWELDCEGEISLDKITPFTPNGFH

[41] = target: Mu-type opioid receptor (Homo sapiens) (UniProt P35372); conditions: Compound concentration 10.0 uM
[42] = target: Histamine H2 receptor (Homo sapiens) (UniProt P25021); conditions: Compound concentration 10.0 uM
[43] = target: GABA-A receptor; anion channel (Rattus norvegicus) (UniProt O09028+P15431+P18506+P18508+P19969+P20236+P23574+P23576+P28471+P28473+P30191+P62813+P63079+P63138+Q91ZM7+Q9ES14); conditions: Compound concentration 10.0 uM

O=C(Nc1ccc(Oc2ccc(F)cc2)cc1)N1CCc2ncccc2[C@H]1c1ccc(F)cc1 [BAY-897]
inactive: residual activity [1] 100% | residual activity [2] 98% | residual activity [3] 77% | residual activity [4] 85% | residual activity [5] 92% | residual activity [6] 100% | residual activity [7] 91% | residual activity [8] 100% | residual activity [9] 87% | residual activity [10] 100% | residual activity [11] 99% | residual activity [12] 100% | residual activity [13] 89% | residual activity [14] 100% | residual activity [15] 85% | residual activity [16] 95% | residual activity [17] 100% | residual activity [18] 78% | residual activity [19] 96% | residual activity [20] 100% | residual activity [21] 83% | residual activity [22] 88% | residual activity [23] 100% | residual activity [24] 87% | residual activity [25] 71% | residual activity [26] 77% | residual activity [27] 80% | residual activity [28] 100% | residual activity [29] 100% | residual activity [30] 100% | residual activity [31] 100% | residual activity [32] 100% | residual activity [33] 100% | residual activity [34] 100% | residual activity [35] 100% | residual activity [36] 84% | residual activity [37] 89% | residual activity [38] 99% | residual activity [39] 100% | inhibition [40] 29.1% | inhibition [41] 37.1% | inhibition [42] 7.29% | inhibition [43] 22.4%

O=C(Nc1cnc(Oc2ccc(F)cc2)nc1)N1CCc2ncccc2[C@@H]1c1ccc(F)cc1 [BAY-899]
inactive: residual activity [1] 100% | residual activity [2] 97% | residual activity [3] 76% | residual activity [4] 74% | residual activity [5] 91% | residual activity [6] 100% | residual activity [7] 82% | residual activity [8] 83% | residual activity [9] 92% | residual activity [10] 88% | residual activity [11] 92% | residual activity [12] 100% | residual activity [13] 96% | residual activity [14] 98% | residual activity [15] 84% | residual activity [16] 82% | residual activity [17] 93% | residual activity [18] 66% | residual activity [19] 100% | residual activity [20] 90% | residual activity [21] 100% | residual activity [22] 90% | residual activity [23] 79% | residual activity [24] 100% | residual activity [25] 81% | residual activity [26] 84% | residual activity [27] 78% | residual activity [28] 100% | residual activity [29] 87% | residual activity [30] 100% | residual activity [31] 100% | residual activity [32] 86% | residual activity [33] 99% | residual activity [34] 100% | residual activity [35] 100% | residual activity [36] 100% | residual activity [37] 88% | residual activity [38] 95% | residual activity [39] 85% | inhibition [40] 10.1% | inhibition [41] 28.1% | inhibition [42] 2.75% | inhibition [43] 26%
